The subject of one series is macrophages. Nature of the series: Nitroreductase-mediated macrophage ablation by metronidazole, Tg(mpeg1:GAL4FF/UAS:NfsB-mCherry). The format is in vivo, zebrafish. As for the experimental part: (§1) Cell ablation was carried out as previously described (Pisharath, H. & Parsons, M. J. in Zebrafish 133-143 (Springer, 2009)) with minor modifications. Larvae at the appropriate stage were incubated in 5-10 mM metronidazole (Mtz) (Sigma-Aldrich) in Ringer's solution and daily refreshed until experimental end point. Drug treatments were carried out by incubating 4 dpf needle stick injured larvae in 5 and 10 μM cenicriviroc (CVC) (Med Chem Express) and 5 and 10 μM maraviroc (MVC) (Med Chem Express) in Ringer's solution immediately post injury and refreshed daily.

Another series relates to mmp9+/mpeg+ macrophages. Nature of the series: Metronidazole ablation of mmp9-expressing macrophages, TgBAC(mmp9:EGFP-NTR). The format is in vivo, zebrafish. As for the experimental part:
as §1
In order to more directly implicate Cluster 2 macrophages in the regulation of regenerative muscle stem cell proliferation, we specifically ablated these cells during the repair process, using an alternative mmp9 promoter-driven transgenic line that expressed the nitroreductase enzyme fused to EGFP (TgBAC(mmp9:EGFP-NTR)^24). These larvae were subjected to a needle stab muscle injury at 4 dpf (0 dpi). At 1.75 dpi larvae were treated with 5 mM Mtz, a dosing that specifically ablated 77.94% of mmp9^+/mpeg^+-macrophages present in the injury zone (FIG. 10b-d). Specific ablation of these cells led to a significant skeletal muscle repair deficit (FIG. 3p-q) and a severe reduction in muscle stem cell proliferation to levels similar to those evident upon mpeg^+-dwelling macrophage ablation, documented above (FIG. 2f-h, FIG. 3r, FIG. 10e-g). Collectively, these analyses indicate that Cluster 2 contains a specific mmp9^+ muscle stem cell-associated, dwelling macrophage subset required for muscle stem cell proliferation during muscle regeneration

For the next series, the system named is larval zebrafish. Put plainly: Tolerability of metronidazole in larval zebrafish. The format is in vivo. To be noted: 10 mM Mtz. As for the experimental part:
as §1

A further series relates to C2C12 myoblasts. Nature of the series: C2C12 myoblast proliferation (EdU incorporation). As to conditions: for effect on NAMPT-induced myoblast proliferation: co-administration with NAMPT, 6 h. The format is cell-based, mouse. The method, then: Larvae: Labelling and detection was carried out as previously described (Nguyen, P. D. et al. Muscle stem cells undergo extensive clonal drift during tissue growth via Meox1-mediated induction of G2 cell-cycle arrest. […] Cell culture: Cells were incubated for 1 h in media supplemented with 10 μM EdU. […] Cells were processed using the Click-iTTM EdU Alexa FluroTM 647 imaging Kit (Thermo Fisher) following the manufacturer's protocol. The mouse muscle cell line […]. Serial passaging and differentiation of myogenic cells isolated from dystrophic mouse muscle. Nature 270, 725 (1977) were cultured in growth media (Dulbecco's Modified Eagle Medium (4.5 g/l D-Glucose, No L Glutamine, No Sodium Pyruvate (Gibco))+20% Fetal Bovine Solution-One Shot (Gibco)+1% Glut Max 100x (Gibco)). Cells were maintained at 37° C., 5% CO2. Cells at 70% confluence, passage 8 were extracted from T75 flasks with 0.025% Tryspin EDTA (Gibco), neutralised in growth media, spun at 180×g for 5 min to pellet cells. The cells were then resuspended in 10 ml of fresh growth media. 500 μl of cells were plated on a 8-well on cover glass II (Sarstedt) chamber slide at a density of 1×10^3 cells/ml. Cells were left 4 h at 37° C. to re-attach. For drug treatments, the media were supplemented with appropriate doses and cultured for 6 h.

A further series concerns PAX7+ satellite cells. Put plainly: Primary mouse myoblast mono- and co-cultures, PAX7+ satellite cell proliferation (EdU). The format is cell-based. As to conditions: 100 nM inhibitor; for effect on macrophage-stimulated satellite cell proliferation: MB+macrophage co-culture; for effect on NAMPT-stimulated satellite cell proliferation: with hrNAMPT. As for the experimental part:
Larvae: Labelling and detection was carried out as previously described (Nguyen, P. D. et al. Muscle stem cells undergo extensive clonal drift during tissue growth via Meox1-mediated induction of G2 cell-cycle arrest. […] Cell culture: Cells were incubated for 1 h in media supplemented with 10 μM EdU. […] Cells were processed using the Click-iTTM EdU Alexa FluroTM 647 imaging Kit (Thermo Fisher) following the manufacturer's protocol. For isolation of primary mouse myoblasts, limb skeletal muscle from E17.5 C57/BL6J mice were minced and digested in 0.125% Trypsin at 37° C. for 20 min. […] Myoblasts were again depleted for fibroblasts prior to co-culturing on gelatin-coated 48 well plates in DMEM+20% FBS+10% L929-conditioned medium. 100,000 myoblasts were plated with either 7,500 MafB/c-Maf deficient (Maf-DKO) macrophages (Aziz, A., Soucie, E., Sarrazin, […]. MafB/c-Maf deficiency enables self-renewal of differentiated functional macrophages. […] For drug treatments, the media were supplemented with appropriate doses and cultured for 24 h.

Series [1] deals with wound-resident muscle stem cells. Put plainly: Larval zebrafish needle stab muscle injury, wound site proliferation (EdU). The format is in vivo. To be noted: needle stab injury, agent alone. As for the experimental part: 4dpf larvae were anaesthetized in 0.01% tricaine (MS-222) (Sigma-Aldrich) in Ringer's solution. Mechanical injures were targeted either to the dorsal or ventral myotome above the cloaca when the larvae is oriented dorsal to the top, anterior to the left. Needle-stick injury was carried out as previously described (Gurevich, D. B. el al. Asymmetric division of clonal muscle stem cells co-ordinate muscle regeneration in vivo. Science 353 6295 aad9969 (2016)). Briefly, the myotome was subjected to a single 30-gauge needle puncture that generates an extensive injury with many damaged muscle fibres. For laser-induced injury, anaesthetised larvae were mounted in a thin layer of 1% low-melt agarose in Ringer's solution. Injuries were carried out using a UV-nitrogen laser pulsed through a coumarin 440 nm dye cell coupled to a Zeiss Axioplan microscope (MicroPoint Laser System, Andor Technology). On average a laser injury required pulses for 5-10 sec from laser beams focused through a 40× water immersion objective. For time-lapse analysis of the immediate response to injury, muscle fibre ablations were achieved using a SIM scanner (Olympus) at 790 nm and 200 msec dwell time at 100% laser power on an Olympus FVMPE-RS upright multi-photon microscope equipped with a 25×/1.05 water immersion objective. Injury-responding macrophages were tracked using the manual tracking plugin in Fiji.
as §1
The effect of drug treatment on laser ablation muscle injury was assayed by treating larvae with 5 μM CVC for 2 h prior to injury and with larvae being maintained in the drug until experimental end point. […] Chemokine supplementation experiments were carried out in plasticware coated with 0.1% bovine serum albumin (BSA) overnight (rinsed in Ringer's solution prior to use) to minimise protein adsorption. Larvae were treated with 57 nM recombinant human visfatin (hrNAMPT(1)) (PeproTech), 57 nM recombinant murine CCL8/MCP-2 (mrCCL8) (PeproTech) and combinations with Mtz and CVC.
Larvae: Labelling and detection was carried out as previously described (Nguyen, P. D. et al. Muscle stem cells undergo extensive clonal drift during tissue growth via Meox1-mediated induction of G2 cell-cycle arrest. Cell Stem Cell 21, 107-119. e106 (2017))^55 with minor alteration. 6 dpf/2 dpi larvae were pulsed with 2.5 nM EdU (Thermo Fisher) for 1h and chased for a further 1.5 h prior to fixation. Cell culture: Cells were incubated for 1 h in media supplemented with 10 μM EdU. Following Edu pulse, C2C12 cells were fixed immediately, while primary mouse myoblast co-cultures were rinsed in PBS, replaced with media and incubated for a further 2 h following which the cells were fixed. Cells were processed using the Click-iT™ EdU Alexa Fluro™ 647 imaging Kit (Thermo Fisher) following the manufacturer's protocol.

The test system of series [2] is larval zebrafish skeletal muscle. Nature of the series: Larval zebrafish muscle regeneration by birefringence imaging. The format is in vivo. As to conditions: larvae soaked in drug after needle stab injury. The method, then: 4dpf larvae were anaesthetized in 0.01% tricaine (MS-222) (Sigma-Aldrich) in Ringer's solution. Mechanical injures were targeted either to the dorsal or ventral myotome above the cloaca when the larvae is oriented dorsal to the top, anterior to the left. Needle-stick injury was carried out as previously described (Gurevich, D. B. el al. Asymmetric division of clonal muscle stem cells co-ordinate muscle regeneration in vivo. Science 353 6295 aad9969 (2016)). Briefly, the myotome was subjected to a single 30-gauge needle puncture that generates an extensive injury with many damaged muscle fibres. […]
Fixed and Immunostained cell culture samples were imaged on a Leica DMi8 inverted widefield microscope with a 10× objective. Birefringence imaging was carried out as previously described (Berger, J., Sztal, T. & Currie, P. D. Quantification of birefringence readily measures the level of muscle damage in zebrafish. Biochemical and biophysical research communications 423, 785-788 (2012)), using a Leica DM IRB upright microscope integrated with the Abrio software (CRI Hinds instruments) using a 5× objective. Images were analysed using the software Fiji^52, whereby the mean grey value of the injury site birefringence is normalised to the region before and after it to calculate relative birefringence of the wound site. […]

Another series relates to Nampt. Put plainly: NAD+/NADH levels after Nampt enzymatic inhibition. To be noted: 10 μM. The format is in vivo, zebrafish.

“Also recorded” adds a separate entry of the source.

`Cc1ncc([N+](=O)[O-])n1CCO` [Mtz, metronidazole]: in the series with macrophages (5 mM Mtz), the “time to start of macrophage ablation after Mtz addition” value came to 3 h. Further, the macrophage ablation in the series with macrophages (5 mM Mtz for 24 h from 4 dpf, trunk macrophages at 5 dpf) turned out to be 77%. Also, the “time until majority of trunk macrophages ablated” value in the series on macrophages (Mtz) fell in the range of 10 to 13 h. In addition, the “ablation of mmp9+/mpeg+ macrophages” value in the series on mmp9+/mpeg+ macrophages (5 mM Mtz at 1.75 dpi) was found to be 77.94%. For the same compound, in the series on mmp9+/mpeg+ macrophages (Mtz treated), the “number of mmp9+/mpeg+ macrophages in injury zone” value came to 2.18±1.19 and the “number of mmp9-/mpeg+ macrophages in injury zone” value is given as 6.65±1.50. In addition, in the series with larval zebrafish, the “lethality, needle stab injured larvae” value is given as “significant lethality” and the “tolerability, uninjured larvae” value was “able to tolerate”.

`CCCCOCCOc1ccc(-c2ccc3c(c2)/C=C(/C(=O)Nc2ccc([S@@+]([O-])Cc4cncn4CCC)cc2)CCCN3CC(C)C)cc1` [CVC, cenicriviroc, reference compound]: the “effect on NAMPT-induced myoblast proliferation” value in the series with C2C12 myoblasts is reported as “abolishes NAMPT's pro-proliferative response; also recorded: proliferative response was blocked”. In the series on PAX7+ satellite cells, the “effect on macrophage-stimulated satellite cell proliferation” value was “a response that is inhibited; also recorded: reduced satellite cell proliferation in MB+MΦ culture conditions to levels evident in MB alone or MB+3T3 cultures” and the “effect on NAMPT-stimulated satellite cell proliferation” value is “pro-proliferative response is abolished; also recorded: an effect that was abolished”. Also, in series [1], the “wound site muscle stem cell proliferation” value is given as “proliferation is inhibited by CVC addition; also recorded: resulted in a proliferation deficit; also recorded: reduction in the proliferation of pax3a^+ myogenic stem cells; also recorded: reduction in the proliferation of par3a^+ myogenic stem cells”. In addition, the “muscle regeneration (birefringence)” value in series [2] is listed as “marked regeneration deficit; also recorded: highly significant regeneration deficit”.

As for maraviroc [MVC, reference compound], the “effect on NAMPT-induced myoblast proliferation” value with C2C12 myoblasts is on record as “abolishes NAMPT's pro-proliferative response; also recorded: proliferative response was blocked”. Also, in the series with PAX7+ satellite cells, the “effect on macrophage-stimulated satellite cell proliferation” value was “pro-proliferative response is abolished” and the “effect on NAMPT-stimulated satellite cell proliferation” value is reported as “an effect that was abolished”. In addition, the “wound site muscle stem cell proliferation” value in series [1] was “reduction in the proliferation of pax3a^+ myogenic stem cells; also recorded: reduction in the proliferation of par3a^+ myogenic stem cells”. In addition, in series [2], the “muscle regeneration (birefringence)” value is given as “marked regeneration deficit; also recorded: highly significant regeneration deficit”.

As for `N#CN=C(NCCCCCCOc1ccc(Cl)cc1)Nc1ccncc1` [GMX1778, reference compound], the “myoblast proliferation, factor added alone” value in the series with C2C12 myoblasts (6 h in growth media) is recorded as “no negative effect on the basal level of C2C12 proliferation”. In the series on C2C12 myoblasts, the “effect on NAMPT-induced myoblast proliferation” value was “does not impact its effect on myoblast proliferation; also recorded: did not affect the increased myoblast proliferation”. Also, in series [1], the “wound site muscle stem cell proliferation” value was “had no effect on muscle stem cell proliferation in the injury zone; also recorded: did not alter muscle stem cell proliferation”. In addition, the “larval NAD+/NADH levels” value in the series on Nampt is “severe reduction in larval NAD^+/NADH levels”.

The record behind these values is US20240041922A1, “METHODS AND COMPOSITIONS” (Monash University, priority 2020, published 2024).
